Literature values in publication PMC9851200, “Multiparameter phenotypic screening for endogenous TFEB and TFE3 translocation identifies novel chemical series modulating lysosome function” (Autophagy, 2022).

Assays:
Parameters in all cases: method as in original PKIS2 published data
[1] = target: kinases (KINOMEscan panel) (Homo sapiens, UniProt O43683); details: kinase BUB1; Published KINOMEscan; ref original PKIS2 published data; cited from earlier work
[2] = target: kinases (KINOMEscan panel) (Homo sapiens, UniProt P07949); details: kinase RET; Published KINOMEscan; ref original PKIS2 published data; cited from earlier work
Sequence of kinases (KINOMEscan panel) (Homo sapiens, UniProt P07949) (P07949 29-1114): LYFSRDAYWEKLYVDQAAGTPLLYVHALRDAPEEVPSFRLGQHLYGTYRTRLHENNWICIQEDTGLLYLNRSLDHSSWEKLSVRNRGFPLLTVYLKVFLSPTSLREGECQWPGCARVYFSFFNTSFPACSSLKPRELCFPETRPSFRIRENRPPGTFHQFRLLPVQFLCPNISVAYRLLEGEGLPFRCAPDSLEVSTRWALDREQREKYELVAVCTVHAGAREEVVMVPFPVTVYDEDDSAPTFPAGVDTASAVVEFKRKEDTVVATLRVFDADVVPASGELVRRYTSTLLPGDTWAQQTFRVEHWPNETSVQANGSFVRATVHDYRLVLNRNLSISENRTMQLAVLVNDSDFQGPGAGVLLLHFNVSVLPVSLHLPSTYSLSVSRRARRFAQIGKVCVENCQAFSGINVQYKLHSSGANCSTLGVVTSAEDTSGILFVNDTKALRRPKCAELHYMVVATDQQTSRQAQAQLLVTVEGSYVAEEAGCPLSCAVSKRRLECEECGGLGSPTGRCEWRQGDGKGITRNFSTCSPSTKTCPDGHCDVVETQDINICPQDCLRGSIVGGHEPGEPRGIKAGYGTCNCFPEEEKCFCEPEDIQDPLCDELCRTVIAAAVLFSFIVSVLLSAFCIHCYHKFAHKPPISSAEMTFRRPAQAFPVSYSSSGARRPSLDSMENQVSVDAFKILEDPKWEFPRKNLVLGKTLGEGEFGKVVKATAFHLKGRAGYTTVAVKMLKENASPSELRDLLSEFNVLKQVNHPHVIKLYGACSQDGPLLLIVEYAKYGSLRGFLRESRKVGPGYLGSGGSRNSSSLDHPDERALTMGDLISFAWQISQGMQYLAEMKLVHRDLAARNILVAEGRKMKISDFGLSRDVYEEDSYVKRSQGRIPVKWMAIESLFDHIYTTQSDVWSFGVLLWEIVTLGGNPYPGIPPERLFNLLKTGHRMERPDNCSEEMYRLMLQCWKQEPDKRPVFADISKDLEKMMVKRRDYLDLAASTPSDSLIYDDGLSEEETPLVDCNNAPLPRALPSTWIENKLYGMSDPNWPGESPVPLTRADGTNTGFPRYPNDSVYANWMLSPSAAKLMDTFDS

[3] = target: kinases (KINOMEscan panel) (Homo sapiens, UniProt P0C1S8); details: WEE2; Published KINOMEscan; ref original PKIS2 published data; cited from earlier work
[4] = target: kinases (KINOMEscan panel) (Homo sapiens, UniProt P31751); details: Published KINOMEscan; ref original PKIS2 published data; cited from earlier work
[5] = target: kinases (KINOMEscan panel) (Homo sapiens, UniProt P42336); details: kinase PIK3CA; Published KINOMEscan; ref original PKIS2 published data; cited from earlier work
Sequence of kinases (KINOMEscan panel) (Homo sapiens, UniProt P42336) (P42336 whole entry): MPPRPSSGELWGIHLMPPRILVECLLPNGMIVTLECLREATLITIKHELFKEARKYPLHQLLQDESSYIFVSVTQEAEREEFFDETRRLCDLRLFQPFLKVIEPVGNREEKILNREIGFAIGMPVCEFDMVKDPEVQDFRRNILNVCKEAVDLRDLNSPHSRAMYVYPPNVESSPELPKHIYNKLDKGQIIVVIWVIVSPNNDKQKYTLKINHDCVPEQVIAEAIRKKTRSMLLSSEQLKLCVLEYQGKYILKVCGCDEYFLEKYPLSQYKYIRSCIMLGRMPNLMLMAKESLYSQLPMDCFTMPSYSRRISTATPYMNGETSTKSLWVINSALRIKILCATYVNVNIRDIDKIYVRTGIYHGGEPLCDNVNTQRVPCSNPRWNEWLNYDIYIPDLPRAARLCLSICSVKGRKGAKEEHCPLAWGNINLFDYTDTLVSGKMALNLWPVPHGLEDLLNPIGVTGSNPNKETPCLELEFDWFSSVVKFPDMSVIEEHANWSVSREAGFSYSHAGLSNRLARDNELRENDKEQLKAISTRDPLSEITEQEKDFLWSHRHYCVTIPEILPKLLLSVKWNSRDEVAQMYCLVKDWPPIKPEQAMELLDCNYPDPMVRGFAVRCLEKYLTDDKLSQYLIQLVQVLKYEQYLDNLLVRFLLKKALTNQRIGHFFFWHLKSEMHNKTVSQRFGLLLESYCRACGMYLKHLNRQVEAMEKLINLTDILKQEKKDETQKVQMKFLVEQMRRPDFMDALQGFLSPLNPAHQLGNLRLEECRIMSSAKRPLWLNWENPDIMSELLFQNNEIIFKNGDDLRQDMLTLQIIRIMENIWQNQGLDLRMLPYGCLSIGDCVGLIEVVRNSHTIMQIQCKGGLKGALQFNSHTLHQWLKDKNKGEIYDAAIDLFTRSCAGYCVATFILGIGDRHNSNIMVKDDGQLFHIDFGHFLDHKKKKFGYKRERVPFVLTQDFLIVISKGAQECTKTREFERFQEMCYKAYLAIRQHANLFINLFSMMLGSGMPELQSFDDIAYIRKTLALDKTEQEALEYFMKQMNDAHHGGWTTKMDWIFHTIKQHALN

[6] = target: kinases (KINOMEscan panel) (Homo sapiens, UniProt P48729); details: CSNK1A1; Published KINOMEscan; ref original PKIS2 published data; cited from earlier work
[7] = target: kinases (KINOMEscan panel) (Homo sapiens, UniProt Q00536); details: kinase CDK16; Published KINOMEscan; ref original PKIS2 published data; cited from earlier work
[8] = target: kinases (KINOMEscan panel) (Homo sapiens, UniProt Q04912); details: MST1R; Published KINOMEscan; ref original PKIS2 published data; cited from earlier work
Sequence of kinases (KINOMEscan panel) (Homo sapiens, UniProt Q04912) (Q04912 25-1400): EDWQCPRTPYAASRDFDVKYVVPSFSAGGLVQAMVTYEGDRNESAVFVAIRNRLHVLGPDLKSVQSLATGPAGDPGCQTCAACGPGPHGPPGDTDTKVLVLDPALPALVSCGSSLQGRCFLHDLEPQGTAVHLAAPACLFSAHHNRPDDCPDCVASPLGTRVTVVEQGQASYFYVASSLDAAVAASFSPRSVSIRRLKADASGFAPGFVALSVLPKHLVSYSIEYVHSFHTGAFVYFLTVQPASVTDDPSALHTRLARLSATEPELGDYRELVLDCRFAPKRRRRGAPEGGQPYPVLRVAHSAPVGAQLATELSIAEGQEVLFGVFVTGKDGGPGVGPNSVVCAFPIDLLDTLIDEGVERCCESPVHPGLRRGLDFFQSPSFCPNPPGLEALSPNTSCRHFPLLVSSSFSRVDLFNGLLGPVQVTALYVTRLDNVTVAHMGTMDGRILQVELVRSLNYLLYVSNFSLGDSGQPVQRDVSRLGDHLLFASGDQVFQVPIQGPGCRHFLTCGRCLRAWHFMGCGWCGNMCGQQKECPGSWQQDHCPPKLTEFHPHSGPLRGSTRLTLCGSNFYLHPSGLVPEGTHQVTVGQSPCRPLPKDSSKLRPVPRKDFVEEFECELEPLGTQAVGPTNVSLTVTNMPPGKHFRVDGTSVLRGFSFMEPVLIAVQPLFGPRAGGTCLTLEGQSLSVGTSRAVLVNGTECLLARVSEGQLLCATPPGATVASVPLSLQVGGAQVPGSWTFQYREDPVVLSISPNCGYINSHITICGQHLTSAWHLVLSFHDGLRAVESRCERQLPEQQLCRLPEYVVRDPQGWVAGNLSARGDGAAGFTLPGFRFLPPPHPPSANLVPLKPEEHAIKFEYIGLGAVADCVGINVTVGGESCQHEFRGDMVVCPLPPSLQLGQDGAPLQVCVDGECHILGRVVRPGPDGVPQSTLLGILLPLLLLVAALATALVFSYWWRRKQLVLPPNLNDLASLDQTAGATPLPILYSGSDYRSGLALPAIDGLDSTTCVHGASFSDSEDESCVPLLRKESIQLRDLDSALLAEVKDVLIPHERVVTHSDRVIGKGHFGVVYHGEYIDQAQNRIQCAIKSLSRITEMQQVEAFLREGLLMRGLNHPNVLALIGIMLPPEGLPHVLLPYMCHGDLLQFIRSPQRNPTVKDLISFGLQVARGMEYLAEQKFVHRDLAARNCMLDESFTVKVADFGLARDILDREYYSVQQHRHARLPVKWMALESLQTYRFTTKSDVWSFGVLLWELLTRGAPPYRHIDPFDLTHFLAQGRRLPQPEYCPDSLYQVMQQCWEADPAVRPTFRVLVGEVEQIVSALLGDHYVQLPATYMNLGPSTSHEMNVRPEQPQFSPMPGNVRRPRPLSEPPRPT

[9] = target: kinases (KINOMEscan panel) (Homo sapiens, UniProt Q14680); details: kinase MELK; Published KINOMEscan; ref original PKIS2 published data; cited from earlier work
[10] = target: T1, kinases (KINOMEscan panel) (Homo sapiens, UniProt Q7L7X3); details: kinase TAOK1; Published KINOMEscan; ref original PKIS2 published data; cited from earlier work
T1 sequence (Q7L7X3 1-1001): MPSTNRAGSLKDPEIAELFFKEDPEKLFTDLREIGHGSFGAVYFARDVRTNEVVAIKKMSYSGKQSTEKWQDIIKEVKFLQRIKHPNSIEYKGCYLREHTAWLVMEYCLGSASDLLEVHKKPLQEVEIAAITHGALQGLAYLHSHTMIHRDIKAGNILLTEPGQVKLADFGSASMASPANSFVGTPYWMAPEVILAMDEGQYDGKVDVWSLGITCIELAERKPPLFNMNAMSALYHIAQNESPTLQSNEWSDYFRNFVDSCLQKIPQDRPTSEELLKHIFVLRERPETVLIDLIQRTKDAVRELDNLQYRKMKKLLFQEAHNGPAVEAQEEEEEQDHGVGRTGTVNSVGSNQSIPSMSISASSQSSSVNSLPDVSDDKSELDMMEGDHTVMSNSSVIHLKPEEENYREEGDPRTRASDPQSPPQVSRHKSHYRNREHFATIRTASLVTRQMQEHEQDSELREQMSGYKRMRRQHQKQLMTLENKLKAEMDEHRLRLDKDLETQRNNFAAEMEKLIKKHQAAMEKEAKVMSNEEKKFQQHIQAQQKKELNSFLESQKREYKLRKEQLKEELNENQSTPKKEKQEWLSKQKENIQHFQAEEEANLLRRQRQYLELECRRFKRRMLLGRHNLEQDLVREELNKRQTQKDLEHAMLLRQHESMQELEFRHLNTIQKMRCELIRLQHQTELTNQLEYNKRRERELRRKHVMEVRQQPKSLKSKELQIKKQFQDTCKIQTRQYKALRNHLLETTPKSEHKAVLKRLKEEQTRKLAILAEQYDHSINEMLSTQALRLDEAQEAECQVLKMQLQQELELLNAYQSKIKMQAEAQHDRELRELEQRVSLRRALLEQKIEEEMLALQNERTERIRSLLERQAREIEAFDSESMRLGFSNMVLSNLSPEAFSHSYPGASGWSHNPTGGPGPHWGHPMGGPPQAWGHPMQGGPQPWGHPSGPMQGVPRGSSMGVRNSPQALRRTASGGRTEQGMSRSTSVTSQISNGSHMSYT

[11] = target: kinases (KINOMEscan panel) (Homo sapiens, UniProt Q9UIK4); details: kinase DAPK2; Published KINOMEscan; ref original PKIS2 published data; cited from earlier work
[12] = target: kinases (KINOMEscan panel) (Homo sapiens, UniProt Q9UQM7); details: kinase CAMK2A; Published KINOMEscan; ref original PKIS2 published data; cited from earlier work
Sequence of kinases (KINOMEscan panel) (Homo sapiens, UniProt Q9UQM7) (Q9UQM7 whole entry): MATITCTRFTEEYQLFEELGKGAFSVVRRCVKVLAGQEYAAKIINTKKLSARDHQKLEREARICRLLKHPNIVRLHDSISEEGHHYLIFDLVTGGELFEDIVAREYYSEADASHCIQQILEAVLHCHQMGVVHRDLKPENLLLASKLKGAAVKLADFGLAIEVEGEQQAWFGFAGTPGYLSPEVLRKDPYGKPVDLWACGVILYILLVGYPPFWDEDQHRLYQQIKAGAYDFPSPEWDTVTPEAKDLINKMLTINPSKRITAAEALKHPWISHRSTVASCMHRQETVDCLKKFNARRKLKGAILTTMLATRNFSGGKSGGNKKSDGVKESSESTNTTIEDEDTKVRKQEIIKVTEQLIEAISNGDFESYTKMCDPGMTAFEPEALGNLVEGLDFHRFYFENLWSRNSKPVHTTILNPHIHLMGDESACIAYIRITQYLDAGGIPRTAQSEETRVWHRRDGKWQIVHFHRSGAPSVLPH

Sequence of kinases (KINOMEscan panel) (Homo sapiens, UniProt O43683) (O43683 whole entry): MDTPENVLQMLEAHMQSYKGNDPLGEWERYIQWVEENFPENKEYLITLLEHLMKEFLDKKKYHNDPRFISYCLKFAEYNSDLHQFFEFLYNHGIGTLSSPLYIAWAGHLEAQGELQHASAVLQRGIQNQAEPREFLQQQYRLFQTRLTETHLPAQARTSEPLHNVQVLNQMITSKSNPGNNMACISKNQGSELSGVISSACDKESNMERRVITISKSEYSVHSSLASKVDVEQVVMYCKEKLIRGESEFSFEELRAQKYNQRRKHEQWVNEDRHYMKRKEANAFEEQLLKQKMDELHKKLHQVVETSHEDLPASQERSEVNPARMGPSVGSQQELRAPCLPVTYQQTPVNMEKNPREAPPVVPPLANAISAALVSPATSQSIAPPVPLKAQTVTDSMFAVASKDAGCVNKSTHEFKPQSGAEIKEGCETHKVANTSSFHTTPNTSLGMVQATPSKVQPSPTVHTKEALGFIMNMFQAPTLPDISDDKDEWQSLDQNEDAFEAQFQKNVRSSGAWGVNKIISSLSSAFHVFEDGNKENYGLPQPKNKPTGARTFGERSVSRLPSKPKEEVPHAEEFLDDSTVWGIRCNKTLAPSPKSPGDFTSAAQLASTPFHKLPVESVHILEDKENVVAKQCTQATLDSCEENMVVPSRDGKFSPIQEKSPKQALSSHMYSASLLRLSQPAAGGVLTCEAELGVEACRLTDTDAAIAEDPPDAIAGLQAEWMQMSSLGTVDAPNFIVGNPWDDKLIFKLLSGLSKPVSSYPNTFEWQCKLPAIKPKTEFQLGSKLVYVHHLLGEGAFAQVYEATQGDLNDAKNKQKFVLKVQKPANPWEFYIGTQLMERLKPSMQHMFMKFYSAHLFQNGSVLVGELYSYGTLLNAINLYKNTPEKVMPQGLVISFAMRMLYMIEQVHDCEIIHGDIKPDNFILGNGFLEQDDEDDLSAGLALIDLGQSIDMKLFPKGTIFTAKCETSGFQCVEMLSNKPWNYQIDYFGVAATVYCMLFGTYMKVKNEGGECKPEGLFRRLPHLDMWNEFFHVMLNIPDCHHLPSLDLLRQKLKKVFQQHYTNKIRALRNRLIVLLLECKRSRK

SMILES: Cc1cccc(-c2nc(Nc3ccncc3)c3ccccc3n2)n1 [NK215]
- KINOMEscan BUB1 [1]: 0
- KINOMEscan RET [2]: 9
- KINOMEscan WEE2 [3]: 8
- KINOMEscan AKT2 [4]: 0
- KINOMEscan PIK3CA [5]: 0
- KINOMEscan CSNK1A1 [6]: 46
- KINOMEscan CDK16 [7]: 0
- KINOMEscan MST1R [8]: 0
- KINOMEscan MELK [9]: 11
- KINOMEscan TAOK1 [10]: 0
- KINOMEscan DAPK2 [11]: 7
- KINOMEscan CAMK2A [12]: 6
